Where only a bound is given, the exact number is not on record here.

Data on 26 compounds can be found in patent US12552804B2, “Tricyclic heterocycles as FGFR inhibitors” (Incyte Corporation, priority 2019, dated 2026).

In this test the target is wild-type un-phosphorylated FGFR3 protein (Homo sapiens, UniProt P22607). Briefly: FGFR Enzymatic Assay (FRET detection of peptide phosphorylation). In kind it is biochemical. The conditions noted are these: pre-incubated for 4 hours, read-out: FGFR3_Ki. The method, then:
The inhibitor potency of the exemplified compounds was determined in an enzyme discontinuous assay that measures peptide phosphorylation using FRET measurements to detect product formation. Inhibitors were serially diluted in DMSO and a volume of 0.2 μL was transferred to the wells of a 384-well plate. A 5 μL/well volume of enzyme isoforms of FGFR (−1, −2, −3 wild-type and mutant isoforms, −4) including phosphorylated and un-phosphorylated proteins diluted in assay buffer (50 mM HEPES, 10 mM MgCl2, 1 mM EGTA, 0.01% Tween-20, 5 mM DTT, pH 7.5) was added to the plate and pre-incubated with inhibitor for 5 to 15 minutes at ambient temperature. Appropriate controls (enzyme blank and enzyme with no inhibitor) were included on the plate. […] The ATP Km values were pre-determined in a separate series of experiments. The reaction plate was incubated at 25° C. for 1 hr and the reactions were ended with the addition of 5 μL/well of quench solution (50 mM Tris, 150 mM NaCl, 0.5 mg/mL BSA, pH 7.8; 45 mM EDTA, 600 nM staurosporin, with Perkin Elmer Lance Reagents at 3.75 nM Eu-antibody PY20 and 180 nM APC-Streptavidin). The plate was allowed to equilibrate for ˜10 minutes at ambient temperature before scanning on a PheraStar plate reader (BMG Labtech) instrument.
Either GraphPad prism or XLfit was used to analyze the data. The IC50 values were derived by fitting the data to a four parameter logistic equation producing a sigmoidal dose-response curve with a variable Hill coefficient. Prism equation: Y=Bottom+(Top−Bottom)/(1+10^((LogIC50−X)*Hill slope)); XLfit equation: Y=(A+((B−A)/(1+((X/C)^D)))) where X is the logarithm of inhibitor concentration and Y is the response.
The data in Table 1 was measured in wild-type un-phosphorylated FGFR3 protein.

Chain of wild-type un-phosphorylated FGFR3 protein (P22607 23-806): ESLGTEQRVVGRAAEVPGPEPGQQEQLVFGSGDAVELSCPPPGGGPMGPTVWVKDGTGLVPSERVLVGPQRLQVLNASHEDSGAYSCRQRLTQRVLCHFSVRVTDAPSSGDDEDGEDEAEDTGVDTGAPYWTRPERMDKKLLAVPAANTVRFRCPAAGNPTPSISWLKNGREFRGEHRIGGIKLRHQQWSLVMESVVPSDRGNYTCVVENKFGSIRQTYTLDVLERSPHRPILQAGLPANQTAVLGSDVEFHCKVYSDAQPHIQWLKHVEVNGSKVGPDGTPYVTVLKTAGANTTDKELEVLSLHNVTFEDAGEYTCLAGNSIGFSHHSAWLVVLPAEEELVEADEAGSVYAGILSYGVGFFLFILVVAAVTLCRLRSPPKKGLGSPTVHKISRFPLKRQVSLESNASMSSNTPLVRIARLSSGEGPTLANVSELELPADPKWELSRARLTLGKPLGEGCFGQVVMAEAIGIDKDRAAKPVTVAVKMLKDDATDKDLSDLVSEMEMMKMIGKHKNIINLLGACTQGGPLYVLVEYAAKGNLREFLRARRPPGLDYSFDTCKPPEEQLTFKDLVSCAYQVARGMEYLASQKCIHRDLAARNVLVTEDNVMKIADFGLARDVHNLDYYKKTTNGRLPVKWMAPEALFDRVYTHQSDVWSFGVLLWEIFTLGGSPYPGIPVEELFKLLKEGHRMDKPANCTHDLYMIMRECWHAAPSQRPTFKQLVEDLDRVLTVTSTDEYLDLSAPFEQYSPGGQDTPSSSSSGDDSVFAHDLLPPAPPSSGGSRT

With `O=C(O)c1ccc(Cn2cc(-c3cnc4ccn5cc(-c6c(Cl)cccc6Cl)nc5c4c3)cn2)cc1F` [Example 42, 4-((4-(2-(2,6-Dichlorophenyl)imidazo[2,1-f][1,6]naphthyridin-9-yl)-1H-pyrazol-1-yl)methyl)-2-fluorobenzoic acid], the Ki was less than 0.01 µM. In the case of `CN(C)C(=O)c1ccc(-n2cc(-c3cnc4ccn5cc(-c6c(Cl)cccc6Cl)nc5c4c3)cn2)cc1` [Example 43, 4-(4-(2-(2,6-Dichlorophenyl)imidazo[2,1-f][1,6]naphthyridin-9-yl)-1H-pyrazol-1-yl)-N,N-dimethylbenzamide] it was 0.01 to 0.1 µM; in that of `COCC(=O)N[C@H]1CC[C@H](n2cc(-c3cnc4ccn5cc(-c6c(Cl)cccc6Cl)nc5c4c3)cn2)CC1` [Example 44, N-((1r,4r)-4-(4-(2-(2,6-Dichlorophenyl)imidazo[2,1-f][1,6]naphthyridin-9-yl)-1H-pyrazol-1-yl)cyclohexyl)-2-methoxyacetamide], less than 0.01 µM; in that of `CN(C)C(=O)N[C@H]1CC[C@H](n2cc(-c3cnc4ccn5cc(-c6c(Cl)cccc6Cl)nc5c4c3)cn2)CC1` [Example 45, 3-((1r,4r)-4-(4-(2-(2,6-Dichlorophenyl)imidazo[2,1-f][1,6]naphthyridin-9-yl)-1H-pyrazol-1-yl)cyclohexyl)-1,1-dimethylurea], less than 0.01 µM.

Turning to `CC(=O)N1CC2(CCC(n3cc(-c4cnc5ccn6cc(-c7c(Cl)cccc7Cl)nc6c5c4)cn3)CC2)C1` [Example 46, 1-(7-(4-(2-(2,6-Dichlorophenyl)imidazo[2,1-f][1,6]naphthyridin-9-yl)-1H-pyrazol-1-yl)-2-azaspiro[3.5]nonan-2-yl)ethan-1-one], the Ki is less than 0.01 µM. In the case of `Cc1c(-c2c(Cl)cccc2Cl)nc2c3cc(-c4cnn(C5CCOCC5)c4)cnc3ccn12` [Example 47, 2-(2,6-Dichlorophenyl)-3-methyl-9-(1-(tetrahydro-2H-pyran-4-yl)-1H-pyrazol-4-yl)imidazo[2,1-f][1,6]naphthyridine] it was less than 0.01 µM.

For `Cc1c(-c2c(Cl)cccc2Cl)nc2c3cc(-c4cnn([C@H]5CC[C@H](O)CC5)c4)cnc3ccn12` [Example 48, (1r,4r)-4-(4-(2-(2,6-Dichlorophenyl)-3-methylimidazo[2,1-f][1,6]naphthyridin-9-yl)-1H-pyrazol-1-yl)cyclohexan-1-ol], the Ki is less than 0.01 µM. In the case of `Cc1c(-c2c(Cl)cccc2Cl)nc2c3cc(-c4cnn(C5CCC(C)(C(=O)O)CC5)c4)cnc3ccn12` (centres unmarked) [Example 49, 4-(4-(2-(2,6-Dichlorophenyl)-3-methylimidazo[2,1-f][1,6]naphthyridin-9-yl)-1H-pyrazol-1-yl)-1-methylcyclohexane-1-carboxylic acid] it was less than 0.01 µM. In the case of `CN(C)C(=O)N1CCC(n2cc(-c3cnc4ccn5cc(-c6c(Cl)cccc6Cl)nc5c4c3)cn2)C1` (centres unmarked) [Example 50, 3-(4-(2-(2,6-Dichlorophenyl)imidazo[2,1-f][1,6]naphthyridin-9-yl)-1H-pyrazol-1-yl)-N,N-dimethylpyrrolidine-1-carboxamide] it was less than 0.01 µM; in that of `CN(C)S(=O)(=O)N1CCC(n2cc(-c3cnc4ccn5cc(-c6c(Cl)cccc6Cl)nc5c4c3)cn2)C1` (centres unmarked) [Example 51, 3-(4-(2-(2,6-Dichlorophenyl)imidazo[2,1-f][1,6]naphthyridin-9-yl)-1H-pyrazol-1-yl)-N,N-dimethylpyrrolidine-1-sulfonamide], less than 0.01 µM. Regarding `CC(=O)N1CC[C@H](n2cc(-c3cnc4ccn5c(C)c(-c6c(Cl)cccc6Cl)nc5c4c3)cn2)C1` [Example 52, (S)-1-(3-(4-(2-(2,6-Dichlorophenyl)-3-methylimidazo[2,1-f][1,6]naphthyridin-9-yl)-1H-pyrazol-1-yl)pyrrolidin-1-yl)ethan-1-one], the Ki was less than 0.01 µM. In the case of `Cc1c(-c2c(Cl)cccc2Cl)nc2c3cc(-c4cnn([C@H]5CCN(C(=O)CO)C5)c4)cnc3ccn12` [Example 53, (S)-1-(3-(4-(2-(2,6-Dichlorophenyl)-3-methylimidazo[2,1-f][1,6]naphthyridin-9-yl)-1H-pyrazol-1-yl)pyrrolidin-1-yl)-2-hydroxyethan-1-one] it was less than 0.01 µM; in that of `Cc1c(-c2c(Cl)cccc2Cl)nc2c3cc(-c4cnn(C56CC5CN(C(=O)CO)C6)c4)cnc3ccn12` (centres unmarked) [Example 54, 1-(1-(4-(2-(2,6-Dichlorophenyl)-3-methylimidazo[2,1-f][1,6]naphthyridin-9-yl)-1H-pyrazol-1-yl)-3-azabicyclo[3.1.0]hexan-3-yl)-2-hydroxyethan-1-one], less than 0.01 µM.

On to `O=C(CO)N1CC[C@H](n2cc(-c3cnc4ccn5c(CO)c(-c6c(Cl)cccc6Cl)nc5c4c3)cn2)C1` [Example 55, (S)-1-(3-(4-(2-(2,6-Dichlorophenyl)-3-(hydroxymethyl)imidazo[2,1-f][1,6]naphthyridin-9-yl)-1H-pyrazol-1-yl)pyrrolidin-1-yl)-2-hydroxyethan-1-one], for which the Ki was less than 0.01 µM. In the case of `CC(=O)N1CC[C@H](n2cc(-c3cnc4ccn5c(CO)c(-c6c(Cl)cccc6Cl)nc5c4c3)cn2)C1` [Example 56, (S)-1-(3-(4-(2-(2,6-Dichlorophenyl)-3-(hydroxymethyl)imidazo[2,1-f][1,6]naphthyridin-9-yl)-1H-pyrazol-1-yl)pyrrolidin-1-yl)ethan-1-one] it was less than 0.01 µM; in that of `O=C(N1CCOCC1)N1CC[C@H](n2cc(-c3cnc4ccn5c(CO)c(-c6c(Cl)cccc6Cl)nc5c4c3)cn2)C1` [Example 57, (S)-(3-(4-(2-(2,6-Dichlorophenyl)-3-(hydroxymethyl)imidazo[2,1-f][1,6]naphthyridin-9-yl)-1H-pyrazol-1-yl)pyrrolidin-1-yl)(morpholino)methanone], less than 0.01 µM. In the case of `CC(O)c1c(-c2c(Cl)cccc2Cl)nc2c3cc(-c4cnn([C@H]5CCN(C(=O)CO)C5)c4)cnc3ccn12` (stereo partly drawn) [Example 58, 1-((3S)-3-(4-(2-(2,6-dichlorophenyl)-3-(1-hydroxyethyl)imidazo[2,1-f][1,6]naphthyridin-9-yl)-1H-pyrazol-1-yl)pyrrolidin-1-yl)-2-hydroxyethan-1-one] it was less than 0.01 µM; in that of `Cc1c(-c2c(Cl)cccc2Cl)nc2c3cc(-c4cnn(C56CCN(C(=O)CO)CC5C6)c4)cnc3ccn12` (centres unmarked) [Example 59, 1-(6-(4-(2-(2,6-Dichlorophenyl)-3-methylimidazo[2,1-f][1,6]naphthyridin-9-yl)-1H-pyrazol-1-yl)-3-azabicyclo[4.1.0]heptan-3-yl)-2-hydroxyethan-1-one], less than 0.01 µM. In the case of `CC(=O)N1CCC2CC2(n2cc(-c3cnc4ccn5c(C)c(-c6c(Cl)cccc6Cl)nc5c4c3)cn2)C1` (centres unmarked) [Example 60, 1-(1-(4-(2-(2,6-Dichlorophenyl)-3-methylimidazo[2,1-f][1,6]naphthyridin-9-yl)-1H-pyrazol-1-yl)-3-azabicyclo[4.1.0]heptan-3-yl)ethan-1-one] it was less than 0.01 µM. For `Cc1c(-c2c(Cl)cccc2Cl)nc2c3cc(-c4ccc(C5CN(C(=O)CO)C5)nc4)cnc3ccn12` [Example 61, 1-(3-(5-(2-(2,6-Dichlorophenyl)-3-methylimidazo[2,1-f][1,6]naphthyridin-9-yl)pyridin-2-yl)azetidin-1-yl)-2-hydroxyethan-1-one], the Ki lay in the range of 0.01 to 0.1 µM. In the case of `CC(=O)N1CC(c2cncc(-c3cnc4ccn5c(C)c(-c6c(Cl)cccc6Cl)nc5c4c3)c2)C1` [Example 62, 1-(3-(5-(2-(2,6-Dichlorophenyl)-3-methylimidazo[2,1-f][1,6]naphthyridin-9-yl)pyridin-3-yl)azetidin-1-yl)ethan-1-one], the Ki was in the range of 0.01 to 0.1 µM. Take `CC(=O)N1CC(c2ccc(-c3cnc4ccn5c(C)c(-c6c(Cl)cccc6Cl)nc5c4c3)cc2)C1` [Example 63]: the Ki is less than 0.01 µM. In the case of `CC(=O)N1CC[C@H](n2cc(-c3cnc4ccn5c(CO)c(-c6ccccc6Cl)nc5c4c3)cn2)C1` [Example 64, (S)-1-(3-(4-(2-(2-Chlorophenyl)-3-(hydroxymethyl)imidazo[2,1-f][1,6]naphthyridin-9-yl)-1H-pyrazol-1-yl)pyrrolidin-1-yl)ethan-1-one] it was less than 0.01 µM. With `CC(C)c1c(-c2ccccc2Cl)nc2c3cc(-c4cnn([C@H]5CCN(C(=O)CO)C5)c4)cnc3ccn12` [Example 65, (S)-1-(3-(4-(2-(2-Chlorophenyl)-3-isopropylimidazo[2,1-f][1,6]naphthyridin-9-yl)-1H-pyrazol-1-yl)pyrrolidin-1-yl)-2-hydroxyethan-1-one], the Ki was 0.01 to 0.1 µM. As to `O=C(CO)N1CC[C@H](n2cc(-c3cnc4ccn5c(Br)c(-c6c(F)cccc6Cl)nc5c4c3)cn2)C1` [Example 66, (S)-1-(3-(4-(3-Bromo-2-(2-chloro-6-fluorophenyl)imidazo[2,1-f][1,6]naphthyridin-9-yl)-1H-pyrazol-1-yl)pyrrolidin-1-yl)-2-hydroxyethan-1-one], the Ki is less than 0.01 µM. Under `Cc1c(C2CC2)nc2c3cc(-c4cnn(C)c4)cnc3ccn12` [Example 67, 2-Cyclopropyl-3-methyl-9-(1-methyl-1H-pyrazol-4-yl)imidazo[2,1-f][1,6]naphthyridine] stands 0.1 to 0.4 µM.
